Laboratory results reported in patent publication US12606540B2, “Triazolone compound” (MEDSHINE DISCOVERY INC., priority 2020, dated 2026).
Where two headings read alike, the source gives them in different places.

How the values were obtained:
[1] = Pharmacokinetic evaluation in mice (IV and PO); assay type: in vivo, female Balb/c mice; details: for MRT last: read-out: MRT0-last
Description: Experiment process: 0.04 mg/mL of a clarified solution of the test compound in 5% DMSO/10% Solutol solution/85% water was injected into female Balb/c mice (overnight fasting, 7-9 weeks of age) via tail vein, with dosage of 0.2 mg/kg. 0.1 mg/mL of the test compound in 5% DMSO/10% Solutol solution/0.2% Tween80/84.8% water was administered by gavage to female Balb/c mice (overnight fasting, 7-9 weeks of age), with dosage of 1 mg/kg. About 30 μL of blood was collected from the jugular vein at 0.0833, 0.25, 0.5, 1.0, 2.0, 4.0, 8.0, 10 and 24 h and from the tail vein at 0.25, 0.5, 1.0, 2.0, 4.0, 8.0 and 24 h after administration for both groups of animals, and were placed in anticoagulation tubes with EDTA-K2, and the blood was separated by centrifugation to obtain plasma. Plasma concentrations were detected by LC-MS/MS, and relevant pharmacokinetic parameters were calculated using WinNonlin™ Version 6.3 (Pharsight, Mountain View, CA) pharmacokinetic software with a non-compartmental model linear logarithmic trapezoid method.

MDR1 (P-glycoprotein) = experiment: Permeability evaluation on MDR1-MDCK II cell line; details: dog, MDCK-MDR1, pH 7.4
LOK(h) = biological target: T1, LOK(h) (Homo sapiens, UniProt O94804); experiment: Eurofins KinaseProfiler kinase selectivity; assay type: biochemical; details: compound at 1 μM; ATP 120 μM; read-out: Residual enzyme activity
T1 construct: purchased Eurofins (KinaseProfiler platform)
Description: (§1) This experiment aims to study the activity and selectivity of the compounds towards kinases selected from the Eurofins KinaseProfiler™ platform. The compounds against each selected kinase were tested using the KinaseProfiler™ experimental procedure of Eurofins standard, which follows the relevant standard operating procedures. Protein kinases (except ATM(h) and DNA-PK(h)) were tested by […], while lipid kinases, ATM(h), ATR/ATRIP(h) and DNA-PK(h) were tested by HRTF®.
(§2) Compound powders were prepared into 10 mM mother liquor through 100% DMSO solution and then diluted to 50× liquid.
(§3) An appropriate amount of 50× storage solution of the test compound was taken into the test wells, and then the kinase and substrate were added and mixed well. A certain concentration of ATP was added to start the reaction.
(§4) Data were processed using custom in-house analysis software.
(§5) The kinase off-target study in vitro of compound 5 of the present disclosure was carried out to evaluate the inhibitory activity against 15 common kinases at a concentration of 1 μM of the drug, and the results are as shown in Table 6.

MLK1(h) = biological target: T2, MLK1(h) (Homo sapiens, UniProt P80192); experiment: Eurofins KinaseProfiler kinase selectivity; assay type: biochemical; details: compound at 1 μM; ATP 45 μM; read-out: Residual enzyme activity
T2 construct: purchased Eurofins (KinaseProfiler platform)
Description: as §1, §2, §3, §4, §5

Rsk1(h) = biological target: T3, Rsk1(h) (Homo sapiens, UniProt Q15418); experiment: Eurofins KinaseProfiler kinase selectivity; assay type: biochemical; details: compound at 1 μM; ATP 45 μM; read-out: Residual enzyme activity
T3 construct: purchased Eurofins (KinaseProfiler platform)
Description: as §1, §2, §3, §4, §5

CDK2/cyclinA(h) = biological target: T4, CDK2/cyclinA(h) (Homo sapiens, UniProt P24941); experiment: Eurofins KinaseProfiler kinase selectivity; assay type: biochemical; details: compound at 1 μM; ATP 45 μM; read-out: Residual enzyme activity
T4 construct: purchased Eurofins (KinaseProfiler platform)
Description: as §1, §2, §3, §4, §5

TNIK(h) = biological target: T5, TNIK(h) (Homo sapiens, UniProt Q9UKE5); experiment: Eurofins KinaseProfiler kinase selectivity; assay type: biochemical; details: compound at 1 μM; ATP 70 μM; read-out: Residual enzyme activity
T5 construct: purchased Eurofins (KinaseProfiler platform)
Description: as §1, §2, §3, §4, §5

CDK1/cyclinB(h) = biological target: T6, CDK1/cyclinB(h) (Homo sapiens, UniProt P06493); experiment: Eurofins KinaseProfiler kinase selectivity; assay type: biochemical; details: compound at 1 μM; ATP 45 μM; read-out: Residual enzyme activity
T6 construct: purchased Eurofins (KinaseProfiler platform)
Description: as §1, §2, §3, §4, §5

CDK9/cyclin T1(h) = biological target: T7, CDK9/cyclin T1(h) (Homo sapiens, UniProt P50750); experiment: Eurofins KinaseProfiler kinase selectivity; assay type: biochemical; details: compound at 1 μM; ATP 45 μM; read-out: Residual enzyme activity
T7 construct: purchased Eurofins (KinaseProfiler platform)
Description: as §1, §2, §3, §4, §5

[2] = female, Balb/c, mouse, plasma, IV 0.2 mg/kg
[3] = female, Balb/c, mouse, plasma, PO 1 mg/kg

T1 sequence (O94804 whole entry): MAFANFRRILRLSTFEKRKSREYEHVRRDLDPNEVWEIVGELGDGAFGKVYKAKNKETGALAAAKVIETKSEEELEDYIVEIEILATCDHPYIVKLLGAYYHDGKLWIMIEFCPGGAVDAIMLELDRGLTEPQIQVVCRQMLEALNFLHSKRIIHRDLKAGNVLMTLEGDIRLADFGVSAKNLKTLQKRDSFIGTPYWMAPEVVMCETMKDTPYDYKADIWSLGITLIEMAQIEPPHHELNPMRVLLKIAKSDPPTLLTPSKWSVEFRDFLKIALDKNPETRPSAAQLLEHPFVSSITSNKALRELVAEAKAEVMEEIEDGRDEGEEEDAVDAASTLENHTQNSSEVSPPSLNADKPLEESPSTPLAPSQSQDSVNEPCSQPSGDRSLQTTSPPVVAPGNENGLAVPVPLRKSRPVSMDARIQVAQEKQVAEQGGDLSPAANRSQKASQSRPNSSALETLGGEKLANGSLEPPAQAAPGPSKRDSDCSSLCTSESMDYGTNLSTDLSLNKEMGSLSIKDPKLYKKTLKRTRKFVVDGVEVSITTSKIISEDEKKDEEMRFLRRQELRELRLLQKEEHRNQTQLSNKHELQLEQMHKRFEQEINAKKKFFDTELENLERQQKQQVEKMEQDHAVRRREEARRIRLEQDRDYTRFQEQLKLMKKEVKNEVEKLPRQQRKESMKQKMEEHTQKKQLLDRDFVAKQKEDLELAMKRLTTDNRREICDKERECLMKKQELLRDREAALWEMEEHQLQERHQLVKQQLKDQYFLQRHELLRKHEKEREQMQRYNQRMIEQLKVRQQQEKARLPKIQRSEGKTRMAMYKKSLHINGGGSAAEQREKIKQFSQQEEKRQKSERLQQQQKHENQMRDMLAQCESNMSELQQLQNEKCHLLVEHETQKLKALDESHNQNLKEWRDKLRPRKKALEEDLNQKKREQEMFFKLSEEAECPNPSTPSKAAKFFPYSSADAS
T6 sequence (P06493 whole entry): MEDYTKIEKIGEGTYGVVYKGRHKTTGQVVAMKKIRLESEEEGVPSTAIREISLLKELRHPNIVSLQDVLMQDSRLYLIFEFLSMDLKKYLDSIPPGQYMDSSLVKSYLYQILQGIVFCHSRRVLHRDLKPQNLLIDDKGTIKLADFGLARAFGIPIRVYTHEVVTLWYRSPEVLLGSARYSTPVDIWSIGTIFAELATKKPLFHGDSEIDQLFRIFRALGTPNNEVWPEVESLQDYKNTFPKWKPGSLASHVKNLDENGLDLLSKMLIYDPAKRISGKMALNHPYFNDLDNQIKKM
T6 sequence (P14635 whole entry partner): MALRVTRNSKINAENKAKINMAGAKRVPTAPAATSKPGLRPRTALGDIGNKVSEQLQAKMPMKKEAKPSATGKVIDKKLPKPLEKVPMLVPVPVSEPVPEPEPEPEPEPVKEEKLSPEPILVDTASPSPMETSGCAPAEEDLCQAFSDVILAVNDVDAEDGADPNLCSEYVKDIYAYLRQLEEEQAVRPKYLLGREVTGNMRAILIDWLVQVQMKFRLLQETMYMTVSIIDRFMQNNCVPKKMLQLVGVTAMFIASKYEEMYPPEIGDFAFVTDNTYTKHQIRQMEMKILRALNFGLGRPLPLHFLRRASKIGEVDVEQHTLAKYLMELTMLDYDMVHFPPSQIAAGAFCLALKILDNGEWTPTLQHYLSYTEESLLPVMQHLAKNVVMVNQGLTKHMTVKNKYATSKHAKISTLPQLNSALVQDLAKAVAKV
T7 sequence (P50750 whole entry): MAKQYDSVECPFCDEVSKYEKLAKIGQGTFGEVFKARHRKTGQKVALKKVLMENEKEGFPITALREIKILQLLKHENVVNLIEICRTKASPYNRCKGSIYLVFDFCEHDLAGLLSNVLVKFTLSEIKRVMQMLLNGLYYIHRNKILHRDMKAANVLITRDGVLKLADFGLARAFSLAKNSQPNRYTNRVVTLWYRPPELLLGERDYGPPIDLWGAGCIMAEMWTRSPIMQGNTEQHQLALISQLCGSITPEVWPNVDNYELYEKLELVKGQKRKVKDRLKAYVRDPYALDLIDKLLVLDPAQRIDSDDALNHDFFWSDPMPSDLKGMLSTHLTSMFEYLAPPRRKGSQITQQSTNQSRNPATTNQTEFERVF
T7 sequence (O60563 whole entry partner): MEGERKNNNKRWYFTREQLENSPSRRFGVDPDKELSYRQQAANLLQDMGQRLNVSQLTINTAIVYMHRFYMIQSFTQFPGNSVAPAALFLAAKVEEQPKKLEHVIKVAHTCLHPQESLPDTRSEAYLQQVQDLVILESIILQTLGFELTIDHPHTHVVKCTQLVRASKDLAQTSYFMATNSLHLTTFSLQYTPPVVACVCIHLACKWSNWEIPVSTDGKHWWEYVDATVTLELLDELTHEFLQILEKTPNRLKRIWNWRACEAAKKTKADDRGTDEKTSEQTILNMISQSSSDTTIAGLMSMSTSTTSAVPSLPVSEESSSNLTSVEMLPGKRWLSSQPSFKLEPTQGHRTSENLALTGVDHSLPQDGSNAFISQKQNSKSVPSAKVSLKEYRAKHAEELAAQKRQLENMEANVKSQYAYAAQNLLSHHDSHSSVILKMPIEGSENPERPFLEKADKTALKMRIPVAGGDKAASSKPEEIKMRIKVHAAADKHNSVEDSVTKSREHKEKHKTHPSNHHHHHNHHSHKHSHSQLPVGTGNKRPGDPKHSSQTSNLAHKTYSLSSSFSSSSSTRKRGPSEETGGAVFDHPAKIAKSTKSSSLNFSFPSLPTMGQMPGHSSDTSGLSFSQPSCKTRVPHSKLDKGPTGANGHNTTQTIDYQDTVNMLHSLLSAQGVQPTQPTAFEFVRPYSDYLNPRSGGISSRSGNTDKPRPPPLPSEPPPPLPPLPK
T5 sequence (Q9UKE5 whole entry): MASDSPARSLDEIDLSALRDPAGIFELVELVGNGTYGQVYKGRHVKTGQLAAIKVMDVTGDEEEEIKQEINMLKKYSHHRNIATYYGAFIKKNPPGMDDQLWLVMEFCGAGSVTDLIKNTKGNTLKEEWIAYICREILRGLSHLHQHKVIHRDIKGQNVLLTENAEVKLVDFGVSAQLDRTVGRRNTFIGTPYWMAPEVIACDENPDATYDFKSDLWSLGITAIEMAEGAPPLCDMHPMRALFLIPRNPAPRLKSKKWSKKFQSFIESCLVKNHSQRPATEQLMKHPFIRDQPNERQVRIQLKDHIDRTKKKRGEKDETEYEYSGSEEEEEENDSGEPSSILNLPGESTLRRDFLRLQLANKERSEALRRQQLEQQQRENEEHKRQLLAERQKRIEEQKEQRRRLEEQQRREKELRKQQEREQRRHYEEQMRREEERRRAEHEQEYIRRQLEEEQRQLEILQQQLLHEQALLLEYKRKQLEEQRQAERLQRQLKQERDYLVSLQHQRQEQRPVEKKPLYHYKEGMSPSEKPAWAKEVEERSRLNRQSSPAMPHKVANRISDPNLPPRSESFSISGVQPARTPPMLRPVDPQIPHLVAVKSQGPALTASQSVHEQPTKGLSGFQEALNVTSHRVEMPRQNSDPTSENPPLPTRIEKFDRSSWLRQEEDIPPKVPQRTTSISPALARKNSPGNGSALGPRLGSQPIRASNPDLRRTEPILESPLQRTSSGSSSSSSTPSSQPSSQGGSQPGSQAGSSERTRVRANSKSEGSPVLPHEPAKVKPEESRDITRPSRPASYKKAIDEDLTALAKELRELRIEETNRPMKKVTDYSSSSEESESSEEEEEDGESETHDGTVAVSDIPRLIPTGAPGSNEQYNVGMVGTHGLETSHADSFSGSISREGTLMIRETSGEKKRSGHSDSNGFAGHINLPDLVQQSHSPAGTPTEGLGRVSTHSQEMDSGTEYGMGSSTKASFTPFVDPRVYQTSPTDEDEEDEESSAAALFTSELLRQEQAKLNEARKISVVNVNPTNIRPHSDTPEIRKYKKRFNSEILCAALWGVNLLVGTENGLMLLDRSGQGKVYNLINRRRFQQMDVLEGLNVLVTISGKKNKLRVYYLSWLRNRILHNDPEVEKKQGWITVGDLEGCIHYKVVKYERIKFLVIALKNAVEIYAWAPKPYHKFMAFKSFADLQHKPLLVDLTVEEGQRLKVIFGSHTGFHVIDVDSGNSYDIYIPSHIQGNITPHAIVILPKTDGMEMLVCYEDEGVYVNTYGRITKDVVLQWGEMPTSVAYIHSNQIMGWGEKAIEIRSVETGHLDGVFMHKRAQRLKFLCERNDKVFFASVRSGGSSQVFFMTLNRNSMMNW
T3 sequence (Q15418 whole entry): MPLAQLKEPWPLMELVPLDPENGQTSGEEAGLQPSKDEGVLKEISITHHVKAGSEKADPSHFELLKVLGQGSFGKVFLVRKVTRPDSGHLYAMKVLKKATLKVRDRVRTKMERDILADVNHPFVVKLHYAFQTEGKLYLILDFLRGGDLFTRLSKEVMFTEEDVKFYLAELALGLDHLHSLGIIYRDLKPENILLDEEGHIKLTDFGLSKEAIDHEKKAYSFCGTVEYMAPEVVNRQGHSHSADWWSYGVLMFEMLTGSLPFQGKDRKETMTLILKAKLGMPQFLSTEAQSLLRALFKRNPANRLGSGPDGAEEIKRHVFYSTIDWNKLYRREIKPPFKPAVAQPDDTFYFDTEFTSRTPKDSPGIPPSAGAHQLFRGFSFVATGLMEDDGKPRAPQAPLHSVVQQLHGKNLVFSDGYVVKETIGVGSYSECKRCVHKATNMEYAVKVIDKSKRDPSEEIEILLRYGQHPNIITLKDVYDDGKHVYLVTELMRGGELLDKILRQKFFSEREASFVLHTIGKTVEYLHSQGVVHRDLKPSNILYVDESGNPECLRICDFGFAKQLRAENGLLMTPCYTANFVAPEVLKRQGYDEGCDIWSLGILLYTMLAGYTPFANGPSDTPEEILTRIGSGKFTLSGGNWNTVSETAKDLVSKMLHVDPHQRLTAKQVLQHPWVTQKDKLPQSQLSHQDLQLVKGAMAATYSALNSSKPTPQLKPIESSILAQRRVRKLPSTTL

Compound: CCn1c(CO)nn(-c2cc(O[C@@H](C)C(F)(F)F)c(/C(F)=C/c3ncccc3Cl)cc2F)c1=O [Compound 5]
- Tlast ([1]; IV 0.2 mg/kg): 24.0 h
- F ([1]; PO 1 mg/kg): 95.8%
- Tlast ([1]; PO 1 mg/kg): 24.0 h
- AUC(0-inf) [1, 2]: 1.51 µM·h
- AUC(0-t) [1, 2]: 1.43 µM·h
- clearance [1, 2]: 4.38 mL/min/kg
- half-life [1, 2]: 5.83 h
- MRT last [1, 2]: 6.24 h
- Vd ([1]; female, Balb/c, mouse, plasma, IV 0.2 mg/kg, read-out: VdSS): 2.02 L/kg
- AUC(0-inf) [1, 3]: 7.21 µM·h
- AUC(0-t) [1, 3]: 6.87 µM·h
- Tmax [1, 3]: 2 h
- half-life [1, 3]: 5.36 h
- MRT last [1, 3]: 6.99 h
- C0 ([1]; female, Balb/c, mouse, IV 0.2 mg/kg, plasma): 354 nM
- Cmax ([1]; female, Balb/c, mouse, PO 1 mg/kg, plasma): 794 nM
- Papp A→B at 150 min, 2 μM (MDR1 (P-glycoprotein)): 13.3 ×10⁻⁶ cm/s
- Papp B→A at 150 min, 2 μM (MDR1 (P-glycoprotein)): 18.2 ×10⁻⁶ cm/s
- Papp at 150 min, 2 μM (MDR1 (P-glycoprotein)): > 5.5 ×10⁻⁶ cm/s
- efflux ratio at 150 min, 2 μM (MDR1 (P-glycoprotein)): 1.37
- remaining activity at 1 µM (LOK(h)): 108%
- remaining activity at 1 µM (MLK1(h)): 111%
- remaining activity at 1 µM (Rsk1(h)): 88%
- remaining activity at 1 µM (CDK2/cyclinA(h)): 72%
- remaining activity at 1 µM (TNIK(h)): 84%
- remaining activity at 1 µM (CDK1/cyclinB(h)): 91%
- remaining activity at 1 µM (CDK9/cyclin T1(h)): 95%
